# According to patent publication US9708318B2, “Bicyclic heterocycles as FGFR4 inhibitors” (Incyte Corporation, priority 2015, dated 2017):
# Read-outs that look alike come from different tables or passages of the source.
# Columns and labels:
# FGFR1 = FGFR1 (Homo sapiens (Human), UniProt P11362); test: FGFR Enzymatic Assay (FRET peptide phosphorylation), FGFR1
# FGFR2 = FGFR2 (Homo sapiens (Human), UniProt P21802); test: FGFR Enzymatic Assay (FRET peptide phosphorylation), FGFR2; type: biochemical
# Chain of FGFR2 (P21802 22-821): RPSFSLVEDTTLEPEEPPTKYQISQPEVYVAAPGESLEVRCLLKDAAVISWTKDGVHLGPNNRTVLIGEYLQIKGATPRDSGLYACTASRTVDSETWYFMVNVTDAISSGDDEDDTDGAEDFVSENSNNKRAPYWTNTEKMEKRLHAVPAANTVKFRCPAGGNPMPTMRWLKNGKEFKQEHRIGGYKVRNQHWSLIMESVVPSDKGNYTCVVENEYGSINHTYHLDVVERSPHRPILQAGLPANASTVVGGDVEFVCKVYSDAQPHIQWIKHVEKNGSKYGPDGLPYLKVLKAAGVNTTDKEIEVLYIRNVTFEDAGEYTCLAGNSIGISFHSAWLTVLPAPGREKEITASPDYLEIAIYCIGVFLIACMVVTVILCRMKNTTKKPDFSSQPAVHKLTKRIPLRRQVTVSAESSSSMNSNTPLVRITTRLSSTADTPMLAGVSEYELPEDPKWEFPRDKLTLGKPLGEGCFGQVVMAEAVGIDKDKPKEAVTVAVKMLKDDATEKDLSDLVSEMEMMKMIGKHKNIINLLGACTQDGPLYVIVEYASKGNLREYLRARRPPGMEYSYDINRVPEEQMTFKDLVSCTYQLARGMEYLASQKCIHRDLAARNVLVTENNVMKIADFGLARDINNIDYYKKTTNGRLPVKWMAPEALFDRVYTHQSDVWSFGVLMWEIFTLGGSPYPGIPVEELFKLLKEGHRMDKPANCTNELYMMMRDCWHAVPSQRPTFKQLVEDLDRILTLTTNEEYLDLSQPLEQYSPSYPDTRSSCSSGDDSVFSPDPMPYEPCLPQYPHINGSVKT
# Protocol: (§1) The inhibitor potency of the exemplified compounds was measured in an enzyme assay that measures peptide phosphorylation using FRET measurements to detect product formation. Inhibitors were serially diluted in DMSO and a volume of 0.5 μL was transferred to the wells of a 384-well plate.
# (§2) The enzymes were purchased from Millipore or Invitrogen.
# (§3) GraphPad prism3 was used to analyze the data.
# FGFR3 enzyme = FGFR3 enzyme (Homo sapiens (Human), UniProt P22607); test: FGFR Enzymatic Assay (FRET peptide phosphorylation), FGFR3; type: biochemical; settings: read-out: FGFR3 IC50
# Chain of FGFR3 enzyme (P22607 23-806): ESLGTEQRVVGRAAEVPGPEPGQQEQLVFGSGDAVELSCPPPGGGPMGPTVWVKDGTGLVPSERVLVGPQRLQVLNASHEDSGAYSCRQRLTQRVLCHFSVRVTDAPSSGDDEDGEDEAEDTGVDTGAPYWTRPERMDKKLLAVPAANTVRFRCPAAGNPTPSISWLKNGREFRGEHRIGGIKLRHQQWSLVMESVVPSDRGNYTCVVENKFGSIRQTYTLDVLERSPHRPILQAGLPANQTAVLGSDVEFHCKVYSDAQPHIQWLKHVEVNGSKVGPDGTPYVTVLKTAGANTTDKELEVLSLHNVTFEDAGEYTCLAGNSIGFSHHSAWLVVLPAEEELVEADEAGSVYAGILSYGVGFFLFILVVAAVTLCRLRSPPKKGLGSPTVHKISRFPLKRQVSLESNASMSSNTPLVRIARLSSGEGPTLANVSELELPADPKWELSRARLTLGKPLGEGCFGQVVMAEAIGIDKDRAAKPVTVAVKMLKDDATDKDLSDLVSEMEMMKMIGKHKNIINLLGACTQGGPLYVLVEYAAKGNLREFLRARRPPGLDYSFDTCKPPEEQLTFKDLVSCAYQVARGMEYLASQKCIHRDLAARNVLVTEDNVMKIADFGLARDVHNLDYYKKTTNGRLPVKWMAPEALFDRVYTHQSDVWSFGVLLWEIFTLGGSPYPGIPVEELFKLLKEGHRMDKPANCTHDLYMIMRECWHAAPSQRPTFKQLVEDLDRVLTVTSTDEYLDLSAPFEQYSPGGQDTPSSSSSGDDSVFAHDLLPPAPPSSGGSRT
# Protocol: as §1, §3
# FGFR4 = FGFR4 (Homo sapiens (Human), UniProt P22455); test: FGFR Enzymatic Assay (FRET peptide phosphorylation), FGFR4; type: biochemical
# Chain of FGFR4 (P22455 22-802): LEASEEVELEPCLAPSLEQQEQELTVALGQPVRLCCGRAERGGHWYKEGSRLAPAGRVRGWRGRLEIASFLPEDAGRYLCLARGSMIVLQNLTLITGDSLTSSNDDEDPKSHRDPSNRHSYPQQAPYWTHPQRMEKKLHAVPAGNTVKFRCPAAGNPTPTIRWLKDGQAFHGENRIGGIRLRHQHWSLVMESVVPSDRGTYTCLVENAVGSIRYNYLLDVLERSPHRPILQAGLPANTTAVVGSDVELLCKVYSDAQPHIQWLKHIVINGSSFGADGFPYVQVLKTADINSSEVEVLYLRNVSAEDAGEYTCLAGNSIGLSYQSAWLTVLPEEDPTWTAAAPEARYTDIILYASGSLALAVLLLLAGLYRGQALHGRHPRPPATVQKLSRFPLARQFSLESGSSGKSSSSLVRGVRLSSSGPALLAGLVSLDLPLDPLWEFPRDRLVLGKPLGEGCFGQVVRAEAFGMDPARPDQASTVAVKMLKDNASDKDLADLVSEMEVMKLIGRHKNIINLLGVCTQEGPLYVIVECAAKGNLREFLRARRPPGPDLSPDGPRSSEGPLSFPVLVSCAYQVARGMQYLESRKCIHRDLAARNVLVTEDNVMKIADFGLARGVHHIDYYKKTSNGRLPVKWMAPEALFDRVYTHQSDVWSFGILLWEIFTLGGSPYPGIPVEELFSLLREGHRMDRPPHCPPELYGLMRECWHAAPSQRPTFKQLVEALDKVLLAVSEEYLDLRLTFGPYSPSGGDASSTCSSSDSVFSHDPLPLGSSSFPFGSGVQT
# Protocol: as §1, §2, §3
# [1] = FGFR1 IC50 (nM), pre-incubated for 4 hours
# [2] = pre-incubated for 5 to 10 minutes
# [3] = FGFR1 IC50 (nM), pre-incubated for 5 to 10 minutes
# Chain of FGFR1 (P11362 22-822): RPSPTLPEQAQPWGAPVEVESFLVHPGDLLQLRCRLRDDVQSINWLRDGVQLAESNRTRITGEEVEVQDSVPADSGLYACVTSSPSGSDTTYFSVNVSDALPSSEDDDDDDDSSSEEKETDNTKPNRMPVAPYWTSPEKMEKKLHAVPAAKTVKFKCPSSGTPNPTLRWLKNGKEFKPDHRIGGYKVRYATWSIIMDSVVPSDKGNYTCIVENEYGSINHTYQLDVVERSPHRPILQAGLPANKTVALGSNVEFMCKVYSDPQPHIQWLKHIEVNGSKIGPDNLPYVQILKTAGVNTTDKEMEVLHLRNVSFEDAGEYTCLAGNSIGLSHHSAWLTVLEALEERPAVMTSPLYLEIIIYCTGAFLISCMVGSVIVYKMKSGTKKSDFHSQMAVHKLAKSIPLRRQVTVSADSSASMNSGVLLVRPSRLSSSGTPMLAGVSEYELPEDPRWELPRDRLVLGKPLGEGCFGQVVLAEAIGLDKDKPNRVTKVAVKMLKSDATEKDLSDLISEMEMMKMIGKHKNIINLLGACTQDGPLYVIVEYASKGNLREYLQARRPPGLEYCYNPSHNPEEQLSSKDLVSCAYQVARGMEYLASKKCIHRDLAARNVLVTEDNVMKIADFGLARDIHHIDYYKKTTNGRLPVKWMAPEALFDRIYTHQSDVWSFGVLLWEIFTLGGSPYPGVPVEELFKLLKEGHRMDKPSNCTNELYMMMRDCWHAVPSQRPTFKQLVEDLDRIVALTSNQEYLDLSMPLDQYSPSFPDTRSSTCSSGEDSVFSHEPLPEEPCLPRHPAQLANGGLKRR
IC50 (FGFR1; [1]) [nM],IC50 (FGFR2; pre-incubated for 4 hours) [µM],IC50 (FGFR3 enzyme; pre-incubated for 4 hours) [µM],Structure (SMILES),further results
10 to 30,–,–,"COc1cc(OC)c(F)c(N2Cc3cnc(-c4cnn(C5CN(S(C)(=O)=O)C5)c4)cc3C3(CC3)C2=O)c1F [Example 55, 2′-(2,6-difluoro-3,5-dimethoxyphenyl)-6′-(1-(1-(methylsulfonyl)azetidin-3-yl)-1H-pyrazol-4-yl)-1′H-spiro[cyclopropane-1,4′-[2,7]naphthyridin]-3′(2′H)-one]",–
–,< 0.01,< 0.01,"CCN1C(=O)N(c2c(F)c(OC)cc(OC)c2F)Cc2cnc(-c3cnn(C)c3)cc21 [Example 169, 3-(2,6-difluoro-3,5-dimethoxyphenyl)-1-ethyl-7-(1-methyl-1H-pyrazol-4-yl)-3,4-dihydropyrido[4,3-d]pyrimidin-2(1H)-one]","IC50 (FGFR2; [2]): < 0.01 µM; IC50 (FGFR3 enzyme; [2]): < 0.01 µM; IC50 (FGFR1; read-out: FGFR1 IC50, pre-incubated for 5 to 10 minutes): < 10 nM; IC50 (FGFR1; read-out: FGFR1 IC50, pre-incubated for 4 hours): < 10 nM"
30 to 200,–,–,"CCN1C(=O)N(c2c(F)c(OC)cc(OC)c2F)Cc2cnc(-c3cn(Cc4cccnc4)nc3C)cc21 [Example 50, 3-(2,6-difluoro-3,5-dimethoxyphenyl)-1-ethyl-7-(3-methyl-1-(pyridin-3-ylmethyl)-1H-pyrazol-4-yl)-3,4-dihydropyrido[4,3-d]pyrimidin-2(1H)-one]",–

# Continued, compound first:
Structure (SMILES),IC50 (FGFR1; [1]) [nM],IC50 (FGFR2; pre-incubated for 4 hours) [µM],IC50 (FGFR3 enzyme; pre-incubated for 4 hours) [µM],further results
"COc1cc(OC)c(F)c(N2Cc3cnc(-c4cccnc4)cc3C3(CC3)C2=O)c1F [Example 9, 2′-(2,6-difluoro-3,5-dimethoxyphenyl)-6′-(pyridin-3-yl)-1′H-spiro[cyclopropane-1,4′-[2,7]naphthyridin]-3′(2′H)-one]",–,0.03 to 0.2,0.01 to 0.03,IC50 (FGFR4; [2]): 0.01 to 0.03 µM; IC50 (FGFR4; pre-incubated for 4 hours): 0.01 to 0.03 µM; IC50 (FGFR2; [2]): 0.01 to 0.03 µM; IC50 (FGFR3 enzyme; [2]): 0.03 to 0.2 µM
"COc1cc(OC)c(F)c(N2Cc3cnc(-c4cn(C)nc4C)cc3N(c3ccc4c(c3)C(=O)N(C)C4)C2=O)c1F [Example 120, 3-(2,6-difluoro-3,5-dimethoxyphenyl)-7-(1,3-dimethyl-1H-pyrazol-4-yl)-1-(2-methyl-3-oxoisoindolin-5-yl)-3,4-dihydropyrido[4,3-d]pyrimidin-2(1H)-one]",–,–,–,IC50 (FGFR2; [2]): 0.01 to 0.03 µM; IC50 (FGFR3 enzyme; [2]): 0.01 to 0.03 µM
"COc1cc(OC)c(F)c(N2Cc3cnc(-c4ccn(C)n4)cc3N(c3ccc(C#N)cc3)C2=O)c1F [Example 142, 4-(3-(2,6-difluoro-3,5-dimethoxyphenyl)-7-(1-methyl-1H-pyrazol-3-yl)-2-oxo-3,4-dihydropyrido[4,3-d]pyrimidin-1(2H)-yl)benzonitrile]",–,–,–,IC50 (FGFR2; [2]): 0.03 to 0.2 µM; IC50 (FGFR3 enzyme; [2]): 0.01 to 0.03 µM
"COc1cc(OC)c(F)c(N2Cc3cnc(-c4cn(C)nc4C)cc3N(c3cccc(C#N)c3)C2=O)c1F [Example 60, 3-(3-(2,6-difluoro-3,5-dimethoxyphenyl)-7-(1,3-dimethyl-1H-pyrazol-4-yl)-2-oxo-3,4-dihydropyrido[4,3-d]pyrimidin-1(2H)-yl)benzonitrile]",–,–,< 0.01,–
"COc1cc(OC)c(F)c(N2Cc3cnc(-c4cn(CCN5CCOCC5)nc4C)cc3C3(CC3)C2=O)c1F [Example 52, 2′-(2,6-difluoro-3,5-dimethoxyphenyl)-6′-(3-methyl-1-(2-morpholinoethyl)-1H-pyrazol-4-yl)-1′H-spiro[cyclopropane-1,4′-[2,7]naphthyridin]-3′(2′H)-one]",30 to 200,0.01 to 0.03,< 0.01,–
"COc1cc(OC)c(F)c(N2Cc3cnc(-c4cnn(C)c4)cc3N(c3ccc(C#N)cc3)C2=O)c1F [Example 144, 4-(3-(2,6-difluoro-3,5-dimethoxyphenyl)-7-(1-methyl-1H-pyrazol-4-yl)-2-oxo-3,4-dihydropyrido[4,3-d]pyrimidin-1(2H)-yl)benzonitrile]",–,–,–,IC50 (FGFR2; [2]): 0.01 to 0.03 µM; IC50 (FGFR3 enzyme; [2]): 0.01 to 0.03 µM
"COc1cc(OC)c(F)c(N2Cc3cnc(-c4cncc(NS(C)(=O)=O)c4)cc3C3(CC3)C2=O)c1F [Example 15, N-(5-(2′-(2,6-difluoro-3,5-dimethoxyphenyl)-3′-oxo-2′,3′-dihydro-1′H-spiro[cyclopropane-1,4′-[2,7]naphthyridine]-6′-yl)pyridin-3-yl)methanesulfonamide]",–,0.03 to 0.2,0.03 to 0.2,IC50 (FGFR4; [2]): < 0.01 µM; IC50 (FGFR4; pre-incubated for 4 hours): < 0.01 µM; IC50 (FGFR2; [2]): 0.03 to 0.2 µM; IC50 (FGFR3 enzyme; [2]): 0.03 to 0.2 µM
